Among the data in patent US9108921B2, “Therapeutic compounds and compositions” (AGIOS PHARMACEUTICALS, INC, priority 2014, dated 2015) are AC50 values, retold here.

One assay deals with PKR R510Q (Homo sapiens, UniProt P30613, R510Q). Briefly: PKR Mutant Assay, AC50 against PKR R510Q. The format is biochemical. The conditions noted are these: mutant PKR R510Q enzyme. An outline of the steps: (§1)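 LDH-coupled read-out: NADH (180 uM) consumption followed as absorbance change at 340 nm, room temperature, after ADP addition. Mutant PKR enzyme 80-400 ng/well, PEP 0.1-0.5 mM, ADP 0.22-1.65 mM; compound preincubated 60 min with all components except ADP.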
Chain of PKR R510Q (P30613 whole entry R510Q): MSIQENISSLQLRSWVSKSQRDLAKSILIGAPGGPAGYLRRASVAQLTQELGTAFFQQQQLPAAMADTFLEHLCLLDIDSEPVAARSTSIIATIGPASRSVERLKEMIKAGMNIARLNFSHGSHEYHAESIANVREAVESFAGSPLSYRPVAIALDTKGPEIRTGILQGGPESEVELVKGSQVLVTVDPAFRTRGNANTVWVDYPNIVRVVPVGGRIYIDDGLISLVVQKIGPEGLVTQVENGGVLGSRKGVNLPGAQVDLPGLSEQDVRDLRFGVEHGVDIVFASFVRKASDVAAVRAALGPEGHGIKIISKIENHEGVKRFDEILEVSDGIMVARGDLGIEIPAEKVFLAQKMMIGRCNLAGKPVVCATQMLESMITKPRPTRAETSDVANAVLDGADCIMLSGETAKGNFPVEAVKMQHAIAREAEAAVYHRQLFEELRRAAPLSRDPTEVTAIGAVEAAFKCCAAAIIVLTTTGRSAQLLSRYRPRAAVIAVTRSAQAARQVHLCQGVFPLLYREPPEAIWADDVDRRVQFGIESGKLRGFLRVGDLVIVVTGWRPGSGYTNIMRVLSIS

The next assay deals with PKR R532W (Homo sapiens, UniProt P30613, R532W). Nature of the assay: PKR Mutant Assay, AC50 against PKR R532W. It is filed as biochemical. The conditions noted are these: mutant PKR R532W enzyme. An outline of the steps: as §1
Chain of PKR R532W (P30613 whole entry R532W): as the sequence (P30613 whole entry R510Q) above, with Q510R, R532W counted along it
Assay [1] deals with T1, PKR WT (Homo sapiens, UniProt P30613). Briefly: PKR WT enzymatic AC50 assay. It is filed as biochemical. The conditions noted are these: wild type PKR. An outline of the steps:
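LDH-coupled NADH depletion read as A340 change at room temperature after ADP (0.22-1.65 mM) start. Compounds, tested from 100 μM final in 3-fold steps over 11 points with 1% DMSO, sat 60 min with enzyme (80-400 ng/well), PEP 0.1-0.5 mM and NADH 180 uM in Tris pH 7.5/KCl/MgCl2/DTT/BSA buffer.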

Assay [2] addresses T1, PKR WT. Briefly: PKR WT cell based AC50 assay. As to conditions: wild type PKR.

Molecules are shown by their SMILES.

T1 sequence (P30613 whole entry): as the sequence (P30613 whole entry R510Q) above, with Q510R counted along it

Turning to `O=C(c1ccc(NS(=O)(=O)c2cccc3cccnc23)cc1)N1CCC(O)(c2cccc(F)c2F)CC1` [Compound 100, N-[4-[4-(2,3-difluorophenyl)-4-hydroxy-piperidine-1-carbonyl]phenyl]quinoline-8-sulfonamide], the AC50 at PKR R510Q, at PKR R532W, at PKR WT [1] and on PKR WT [2] was less than 100 nM in each case.
`Cc1cc(C(=O)N2CCC(O)(Cc3ccccc3)CC2)ccc1NS(=O)(=O)c1cccc2cccnc12` [Compound 101, N-(4-(4-benzyl-4-hydroxypiperidine-1-carbonyl)-2-methylphenyl)quinoline-8-sulfonamide]: the AC50 on PKR R510Q, at PKR R532W, on PKR WT [1] and on PKR WT [2] was less than 100 nM throughout.
Consider `O=C(c1ccc(NS(=O)(=O)c2cccc3c2OCCC3)cc1)N1CCC(O)(c2ccccc2Cl)CC1` [Compound 102, N-(4-(4-(2-chlorophenyl)-4-hydroxypiperidine-1-carbonyl)phenyl)chroman-8-sulfonamide], for which the AC50 on PKR R510Q, on PKR R532W, at PKR WT [1] and on PKR WT [2] was less than 100 nM in each case.
Regarding `Cc1ccccc1C1(O)CCN(C(=O)c2ccc(NS(=O)(=O)c3cccc4cccnc34)cc2)CC1` [Compound 103, N-(4-(4-hydroxy-4-(o-tolyl)piperidine-1-carbonyl)phenyl)quinoline-8-sulfonamide], the AC50 at PKR R510Q, on PKR R532W, at PKR WT [1] and on PKR WT [2] was less than 100 nM in each case.
As for `Cc1cc(C(=O)N2CCC(O)(c3ccccc3Cl)CC2)ccc1NS(=O)(=O)c1cccc2cccnc12` [Compound 104, N-(4-(4-(2-chlorophenyl)-4-hydroxypiperidine-1-carbonyl)-2-methylphenyl)quinoline-8-sulfonamide], the AC50 on PKR R510Q, at PKR R532W, on PKR WT [1] and on PKR WT [2] was less than 100 nM each time.
Turning to `O=C(c1ccc(NS(=O)(=O)c2cccc3cccnc23)cc1)N1CCC(O)(Cc2cccc(F)c2)CC1` [Compound 105, N-(4-(4-(3-fluorobenzyl)-4-hydroxypiperidine-1-carbonyl)phenyl)quinoline-8-sulfonamide], the AC50 on PKR R510Q, on PKR R532W, on PKR WT [1] and on PKR WT [2] was less than 100 nM in each case.
With `Cc1ccccc1CC1(O)CCN(C(=O)c2ccc(NS(=O)(=O)c3cccc4cccnc34)cc2)CC1` [Compound 108, N-(4-(4-hydroxy-4-(2-methylbenzyl)piperidine-1-carbonyl)phenyl)quinoline-8-sulfonamide], the AC50 on PKR R510Q, on PKR R532W, on PKR WT [1] and at PKR WT [2] was less than 100 nM throughout.
On to `O=C(c1ccc(NS(=O)(=O)c2cccc3cccnc23)cc1)N1CCC(O)(Cc2ccccc2C(F)(F)F)CC1` [Compound 109, N-(4-(4-hydroxy-4-(2-(trifluoromethyl)benzyl)piperidine-1-carbonyl)phenyl)quinoline-8-sulfonamide], for which the concentration at half-maximal activity (AC50) at PKR R510Q, on PKR R532W, at PKR WT [1] and on PKR WT [2] was less than 100 nM throughout.
For the molecule `O=C(c1ccc(NS(=O)(=O)c2cccc3cccnc23)cc1)N1CCC(CO)(Cc2ccccc2)CC1` [Compound 149, N-(4-(4-benzyl-4-(hydroxymethyl)piperidine-1-carbonyl)phenyl)quinoline-8-sulfonamide], the AC50 at PKR R532W, on PKR WT [1] and at PKR WT [2] was less than 100 nM throughout.
For the molecule `CS(=O)(=O)c1cccc(C2(O)CCN(C(=O)c3ccc(NS(=O)(=O)c4cccc5cccnc45)cc3)CC2)c1` [Compound 182, N-(4-(4-hydroxy-4-(3-(methylsulfonyl)phenyl)piperidine-1-carbonyl)phenyl)quinoline-8-sulfonamide], the results for the AC50 on PKR R510Q, at PKR WT [1] and at PKR WT [2] were 1010 to 10000 nM, less than 100 nM and less than 100 nM, respectively.
As to `O=C(c1ccc(NS(=O)(=O)c2cccc3ccnnc23)cc1)N1CCC(O)(c2ccccc2Cl)CC1` [Compound 313], the values for the AC50 on PKR R510Q, at PKR R532W and on PKR WT [1] were more than 10000 nM, more than 10000 nM and 1010 to 10000 nM, respectively.
On to `CC(C)CC1(O)CCN(C(=O)c2ccc(NS(=O)(=O)c3ccnc4scnc34)cc2)CC1` [Compound 314], for which the figures for the AC50 at PKR R510Q, at PKR R532W and on PKR WT [1] were more than 10000 nM, more than 10000 nM and 1010 to 10000 nM, respectively.
With `O=C(c1ccc(NS(=O)(=O)c2c[nH]c3cccnc23)cc1)N1CCC(O)(c2ccccc2Cl)CC1` [Compound 316], the AC50 on PKR R510Q, at PKR R532W and at PKR WT [1] was more than 10000 nM throughout.
For the molecule `O=C(c1ccc(NS(=O)(=O)n2ccc3cccnc32)cc1)N1CCC(O)(c2ccccc2Cl)CC1` [Compound 318], the half-maximal activity concentration (AC50) at PKR R510Q, on PKR R532W and at PKR WT [1] was more than 10000 nM throughout.
With `O=C(c1ccc(NS(=O)(=O)c2cccc3cccnc23)cc1)N1CCC(C(=O)O)(c2ccccc2)CC1` [Compound 320], the AC50 at PKR R510Q, at PKR R532W and on PKR WT [1] was more than 10000 nM each time.
Turning to `O=C(c1ccc(NS(=O)(=O)Cc2ccccn2)cc1)N1CCC(O)(c2ccccc2Cl)CC1` [Compound 322], the concentration at half-maximal activity (AC50) at PKR R510Q, on PKR R532W and on PKR WT [1] was more than 10000 nM each time.
Take `CC(C)CC1(O)CCN(C(=O)c2ccc(NS(=O)(=O)Cc3ccccn3)cc2)CC1` [Compound 324]: the AC50 at PKR R510Q, at PKR R532W and at PKR WT [1] was more than 10000 nM in each case.
In the case of `O=C(c1ccc(NS(=O)(=O)c2ccc(F)c3scnc23)cc1)N1CCC(O)(c2ccccc2Cl)CC1` [Compound 368], the results for the AC50 at PKR R510Q, at PKR R532W and at PKR WT [1] were 1010 to 10000 nM, 101 to 1000 nM and 101 to 1000 nM, respectively.
On to `CC(C)CC1(O)CCN(C(=O)c2ccc(NS(=O)(=O)c3ccc(F)c4scnc34)cc2)CC1` [Compound 372], for which the AC50 at PKR R510Q, at PKR R532W and on PKR WT [1] was 101 to 1000 nM throughout.
Regarding `CC(C)CC1(O)CCN(C(=O)c2ccc(NS(=O)(=O)c3cccc4csnc34)cc2)CC1` [Compound 376], the AC50 was in the range of 1010 to 10000 nM at PKR R510Q, 101 to 1000 nM on PKR R532W and 101 to 1000 nM on PKR WT [1].
For the molecule `O=C(c1ccc(NS(=O)(=O)c2ccc(F)c3scnc23)cc1)N1CCC(O)(c2ccccc2Cl)CC1` [Compound 378, N-(4-(4-(2-chlorophenyl)-4-hydroxypiperidine-1-carbonyl)phenyl)-7-fluorobenzo[d]thiazole-4-sulfonamide], the results for the AC50 at PKR R510Q, on PKR R532W and at PKR WT [1] were 1010 to 10000 nM, 101 to 1000 nM and 101 to 1000 nM, respectively.
Consider `O=C(c1ccc(NS(=O)(=O)c2cccc3ocnc23)cc1)N1CCC(O)(c2ccccc2Cl)CC1` [Compound 381, N-(4-(4-(2-chlorophenyl)-4-hydroxypiperidine-1-carbonyl)phenyl)benzo[d]oxazole-4-sulfonamide], for which the results for the AC50 at PKR R510Q, on PKR R532W and on PKR WT [1] were 101 to 1000 nM, 101 to 1000 nM and less than 100 nM, respectively.
For the molecule `Cc1nc2c(S(=O)(=O)Nc3ccc(C(=O)N4CCC(O)(CC(C)C)CC4)cc3)cccc2o1` [Compound 384, N-(4-(4-hydroxy-4-isobutylpiperidine-1-carbonyl)phenyl)-2-methylbenzo[d]oxazole-4-sulfonamide], the AC50 at PKR R510Q, on PKR R532W and at PKR WT [1] was 101 to 1000 nM each time.
Consider `O=C(c1ccc(NS(=O)(=O)c2cccc3scnc23)cc1)N1CCC(O)(COCC(F)(F)F)CC1` [Compound 386, N-(4-(4-hydroxy-4-((2,2,2-trifluoroethoxy)methyl)piperidine-1-carbonyl)phenyl)benzo[d]thiazole-4-sulfonamide], for which the concentration at half-maximal activity (AC50) on PKR R510Q, at PKR R532W and on PKR WT [1] was 101 to 1000 nM in each case.
Take `CNc1nc2c(S(=O)(=O)Nc3ccc(C(=O)N4CCC(O)(c5ccccc5Cl)CC4)cc3)cccc2s1` [Compound 409]: the AC50 on PKR R510Q, at PKR R532W and on PKR WT [1] was less than 100 nM each time.
Consider `O=C(c1ccc(NS(=O)(=O)c2cccc3scnc23)cc1)N1CCC(O)(c2cn[nH]c2)CC1` [Compound 410, N-[4-[4-hydroxy-4-(1H-pyrazol-4-yl)piperidine-1-carbonyl]phenyl]benzothiazole-4-sulfonamide], for which the AC50 on PKR R510Q is more than 10000 nM; on PKR R532W, 101 to 1000 nM; at PKR WT [1], 101 to 1000 nM.
With `CC(F)(F)CC1(O)CCN(C(=O)c2ccc(NS(=O)(=O)c3cccc4scnc34)cc2)CC1` [Compound 413], the AC50 on PKR R510Q, at PKR R532W and on PKR WT [1] was 101 to 1000 nM in each case.
As for `O=C(c1ccc(NS(=O)(=O)c2cccc3snnc23)cc1)N1CCC(O)(c2ccccc2Cl)CC1` [Compound 417], the AC50 at PKR R510Q was more than 10000 nM; on PKR R532W it was 1010 to 10000 nM; on PKR WT [1], 1010 to 10000 nM.
For the molecule `Nc1nc2cc(S(=O)(=O)Nc3ccc(C(=O)N4CCC(O)(c5ccccc5Cl)CC4)cc3)c(F)cc2s1` [Compound 418], the AC50 at PKR R510Q was more than 10000 nM; on PKR R532W, more than 10000 nM; on PKR WT [1], 1010 to 10000 nM.
On to `CC(C)CC1(O)CCN(C(=O)c2ccc(NS(=O)(=O)c3cccc4[nH]c(=O)cnc34)cc2)CC1` [Compound 438], for which the AC50 at PKR R510Q, at PKR R532W and at PKR WT [1] was 1010 to 10000 nM in each case.

For orientation: AC50 means the concentration giving half of the maximal activity seen.
